Measured values reported in patent publication US10451637B2, “Synthetic blood vessels and uses thereof” (THE UNIVERSITY OF BRITISH COLUMBIA, priority 2017, dated 2019).
Entries after “also recorded” stand apart in the source; their conditions may differ. Blank lines part the entries; values can stand above or below the compound they belong to.

Tests used:
[1] = tested on: native apoE secreted by astrocytes; test: Astrocyte apoE secretion in tripartite vessels (ELISA); type: cell-based, human; details: GW3965 circulated through lumen 72 h
Protocol: All experiments were conducted under an approved clinical protocol (UBC Clinical Ethics Research Board H14-03357). Upon receipt of written informed consent, 100 ml of fasted blood was collected from normolipidemic healthy donors into vacutainer tubes containing EDTA. Plasma HDL (1.063-1.21 g/ml) was isolated by sequential potassium bromide gradient ultracentrifugation. The purity of the HDL preparations were verified by sodium dodecyl sulfate polyacrylamide gel electrophoresis (SDS-PAGE) followed by Coomassie blue staining to ensure no low-density lipoprotein (LDL) or albumin contamination. Total protein concentration was assessed using the bicinchoninic acid (BCA) assay (Thermofisher Scientific). Recombinant ApoE2 and ApoE4 were commercially purchased and solubilized following the manufacturer's instructions (ABCAM, apoE2 ab55210 and apoE4 ab50243). Secretion of endogenous ApoE from human astrocytes in tripartite vessels was induced by injecting 0.8 μM GW3965 in the circulation medium 72 h prior to addition of Aβ. ApoE concentrations were measured using enzyme linked immunosorbent assay (ELISA) as previously described (Fan et al. 2016 PLoS One. September 6; 11(9):e0162384). […] Fluorescence was read after 15 min at RT on an EnSpire 2300 Multilabel Plate Reader (325Ex/420Em). […]

Aβ40 [2] = test: Aβ40 transport into luminal circulating medium, bipartite vessels (ELISA); type: cell-based, human; details: 1 μM Aβ40, over 4 h, apoE ratio 25:1 antelumen, HDL 200 μg/ml circulating
Protocol: (§1) Recombinant Aβ40 and Aβ42 peptides (California Peptide) were dissolved in hexafluoroisopropanol (HFIP). The HFIP was removed by evaporation overnight and stocks were stored at −20° C. On the day of the assay, soluble monomers were prepared by reconstituting the peptide film in dimethylsulfoxide (DMSO) to 5 mM, diluted further to […] in Roswell Park Memorial Institute (RPMI) medium without FBS. 100 μl of Aβ solution was injected in the tissue chamber containing 900 μl of DMEM (Gibco) without FBS to the desired concentration using a syringe under flow conditions. For luminal recovery, 100 μl circulating medium was collected at the indicated time.
(§2) Luminal medium was collected from the circulation chamber and 5 mm tissue rings were crushed and lysed in radioimmunoprecipitation assay (RIPA) buffer (10 mM Tris pH 7.4, 150 mM NaCl, 1.0% NP-40, 1.0% sodium deoxycholate, 0.1% SDS and cOmplete protease inhibitor with EDTA (Roche)). Aβ40 (KHB3442, Life Tech) and Aβ42 (KHB3482, Life Tech) were quantified using commercial ELISAs and normalized to total protein concentration, measured by BCA.
(§3) Genetic variation in APOE represents a common genetic risk for AD, with apoE4 considered detrimental and apoE2 protective (Zlokovic, 2013 JAMA Neurol 70(4):440-444). […]

Aβ42 [3] = test: Aβ42 transport into luminal circulating medium, bipartite vessels (ELISA); type: cell-based, human; details: 1 μM Aβ42, over 4 h, apoE ratio 25:1 antelumen, HDL 200 μg/ml circulating
Protocol: as §1, §2
(§4) Bipartite vessels were prepared as described above. […]

Aβ40 [4] = test: Aβ40 accumulation in vascular tissue, bipartite vessels (ELISA); type: cell-based, human; details: 1 μM Aβ40, 24 h, apoE ratio 25:1, HDL 200 μg/ml
Protocol: as §1, §2, §3

Aβ42 [5] = test: Aβ42 accumulation in vascular tissue, bipartite vessels (ELISA); type: cell-based, human; details: 1 μM Aβ42, 24 h, apoE ratio 25:1, HDL 200 μg/ml
Protocol: as §1, §2, §4

Aβ40 [6] = test: Aβ40 transport into luminal circulating medium, tripartite vessels (ELISA); type: cell-based, human; details: 1 μM Aβ40, over 4 h, GW3965 0.8 μM 72 h (astrocyte apoE), HDL 200 μg/ml
Protocol: as §1
(§5) All experiments were conducted under an approved clinical protocol (UBC Clinical Ethics Research Board H14-03357). Upon receipt of written informed consent, 100 ml of fasted blood was collected from normolipidemic healthy donors into vacutainer tubes containing EDTA. Plasma HDL (1.063-1.21 g/ml) was isolated by sequential potassium bromide gradient ultracentrifugation. […] Total protein concentration was assessed using the bicinchoninic acid (BCA) assay (Thermofisher Scientific). […] ApoE concentrations were measured using enzyme linked immunosorbent assay (ELISA) as previously described (Fan et al. 2016 PLoS One. September 6; 11(9):e0162384). […] Fluorescence was read after 15 min at RT on an EnSpire 2300 Multilabel Plate Reader (325Ex/420Em). […]

Aβ42 [7] = test: Aβ42 transport into luminal circulating medium, tripartite vessels (ELISA); type: cell-based, human; details: 1 μM Aβ42, over 4 h, GW3965 0.8 μM 72 h (astrocyte apoE), HDL 200 μg/ml
Protocol: as §1, §5

Aβ40 [8] = test: Aβ40 accumulation in vascular tissue, tripartite vessels (ELISA); type: cell-based, human; details: after 24 h, relative to baseline tripartite conditions
Protocol: as §1, §5

Aβ42 [9] = test: Aβ42 accumulation in vascular tissue, tripartite vessels (ELISA); type: cell-based, human; details: after 24 h, relative to baseline tripartite conditions
Protocol: as §1, §5

endothelial barrier = test: Endothelial barrier integrity, Evans blue injected into circulation loop; type: in vitro ADME, human; details: tripartite and bipartite vessels
Excerpt: The integrity of the endothelial barrier in tripartite vessels was functionally assessed by injecting Evans blue into the circulation loop and compared to bipartite vessels. As expected, Evans blue was excluded in both tripartite and bipartite vessels (FIG. 1A).

glutamate release = test: Neuronal functionality: glutamate release from quadripartite tissue (HPLC); type: cell-based, human; details: 50 nM KCl for 30 min
Protocol: After 21 days in culture, quadripartite tissue were harvested in Hanks buffered salt solution (HBSS) and cut in half. One half is incubated in HBSS without potassium chloride (KCl) and one half in HBSS with […] KCl. After 30 minutes buffer was collected and run through a GABA/glutamate affinity column on a high pressure liquid chromatography (HPLC) previously calibrated with glutamate standard (0 to 2.5 uM).
The functionality of the neurons was further evaluated by measuring glutamate release in the absence and presence of […] of KCL for 30 min. Glutamate release was then measured by HPLC (FIG. 9A). […] Finally, the secretion of endogenous neuronally-produced Aβ40 and Aβ42 in quadripartite tissue (FIG. 9B) and in circulatory medium (FIG. 9C) as measured by commercial ELISA as above.

NO synthase = test: NO production by EC in tripartite vessels (conversion of L-3H-arginine to L-3H-citruline); type: cell-based, human; details: 1 mM L-NAME with Ach or HDL stimulation
Protocol: Nitric oxide (NO) synthesis was measured using a commercial nitric oxide synthesis (NOS) activity assay kit (Caymenchemical). Briefly, a 2-3 mm ring of vascular tissue was mechanically ground in 150 μl of ice-cold homogenized buffer (25 mM Tris-Cl, pH7.4, 1 mM EDTA and 1 mM EGTA) and centrifuged 15 min at 4° C. at 10,000 g. The supernatant was aliquoted and incubated in reaction buffer containing 25 mM Tris-Cl, pH7.4, 0.25 mM EDTA, 0.6 mM CaCl2, 1 mM NADP, 200 nM calmodulin, 3 μM tetrahydrobiopterin, 1 μM flavin adenine dinucleotide, 1 μM flavin adenine monoucleotide and 0.2 μCi L-^3H-arginine; PerkinElmer) in the presence of 10 nM acetylcholine (Ach), 0.2 mg/ml HDL or 1 mM L-NG-nitroarginine methyl ester (L-NAME). After 60 min at 37° C., the reaction was stopped by adding 400 μl of stop buffer ([…] HEPES, 5 mM EDTA, pH 5.5). […] Scintillation mix (Ultimate Gold, PerkinElmer) was added to the supernatant and counted using LS6500 β-counter (Beckman Coulter). The percent citrulline formed was calculated as follows: % conversion=(cpm reaction-cpm background)/cpm total*100.
The functionality of EC and astrocytes within tripartite bioengineered vessels was evaluated by measuring nitric oxide (NO) produced by EC and native apoE secreted by astrocytes, which were genotyped as apoE3/apoE3. […]

Compound: O=C(O)Cc1cccc(OCCCN(Cc2cccc(C(F)(F)F)c2Cl)CC(c2ccccc2)c2ccccc2)c1 [GW3965]
secretion of native apoE [1]: significantly stimulated

Compound: apoE2: Recombinant ApoE2, commercially purchased (ABCAM ab55210)
Aβ40 transport (recovery into circulation medium) (Aβ40 [2]): did not alter
Aβ42 transport (recovery into circulation medium) (Aβ42 [3]): did not alter
Aβ40 accumulated in tissue (Aβ40 [4]): not significantly affected
Aβ42 accumulated in tissue (Aβ42 [5]): selectively decreased; also recorded: significantly reduced

Compound: apoE: Native apoE3 secreted from astrocytes in tripartite vessels, stimulated with GW3965 (0.8 μM) for 72 h
rate of Aβ40 transport (Aβ40 [6]): neither apoE alone nor HDL alone modified the rate
rate of Aβ42 transport (Aβ42 [7]): neither apoE alone nor HDL alone modified the rate
accumulation of Aβ40 within tissue (Aβ40 [8]): neither apoE, HDL, nor both apoE and HDL affected accumulation
accumulation of Aβ42 within tissue (Aβ42 [9]): neither apoE, HDL, nor both apoE and HDL affected accumulation

Evans blue exclusion (integrity of the endothelial barrier) (endothelial barrier): excluded
Compound: Cc1cc(-c2ccc(/N=N/c3ccc4c(S(=O)(=O)O)cc(S(=O)(=O)O)c(N)c4c3O)c(C)c2)ccc1/N=N/c1ccc2c(S(=O)(=O)O)cc(S(=O)(=O)O)c(N)c2c1O [Evans blue]

Compound: [Cl-].[K+] [KCl, potassium chloride]
glutamate release (glutamate release): increased glutamate release

Compound: apoE4: Recombinant ApoE4, commercially purchased (ABCAM ab50243)
Aβ42 accumulated in tissue (Aβ42 [5]): selectively elevated

Compound: COC(=O)[C@@H](N)CCCNC(=N)N[N+](=O)[O-] [L-NAME, L-NG-nitroarginine methyl ester]
conversion of L-3H-arginine to L-3H-citruline in the presence of L-NAME (NO synthase): the conversion was blocked
